The assay deals with T1, M2 muscarinic receptor (M2) (Homo sapiens, UniProt P08172).
T1 construct: gene CHRM2; full-length human receptor, cDNA from Missouri S&T cDNA Resource Center, expressed in CHO cells; membranes
T1 sequence (P08172 1-466): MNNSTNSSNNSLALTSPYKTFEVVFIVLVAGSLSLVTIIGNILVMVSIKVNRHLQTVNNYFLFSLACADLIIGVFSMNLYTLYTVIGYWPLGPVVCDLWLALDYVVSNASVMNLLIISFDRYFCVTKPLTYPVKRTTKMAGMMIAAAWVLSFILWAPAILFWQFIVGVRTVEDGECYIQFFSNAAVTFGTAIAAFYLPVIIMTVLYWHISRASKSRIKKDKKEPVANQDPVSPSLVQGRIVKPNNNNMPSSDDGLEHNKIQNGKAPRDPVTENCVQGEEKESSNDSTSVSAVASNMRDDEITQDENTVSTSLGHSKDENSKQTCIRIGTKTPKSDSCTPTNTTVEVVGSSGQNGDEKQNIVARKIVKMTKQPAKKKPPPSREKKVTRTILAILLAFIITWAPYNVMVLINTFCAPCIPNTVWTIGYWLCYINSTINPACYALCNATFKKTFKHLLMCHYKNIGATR
As to the kind of experiment: radioligand saturation binding, CHO membranes. The settings on record: labelled compound; […] h, […] °C, pH […].

Here are results for one compound from paper doi:10.1101/2024.10.09.617372v4, “Cholesterol differentially modulates the activity of opioid and muscarinic receptors via a common binding site” (biorxiv, 2025).

As to `C[N+]1(C)[C@@H]2C[C@@H](OC(=O)[C@H](CO)c3ccccc3)C[C@H]1[C@@H]1O[C@@H]12` [[3H]N-methylscopolamine], the KD result was “equilibrium dissociation constant KD, expressed in nM, of [^3H]NMS (muscarinic)”.
